Measured values published in publication PMC10296195, “C-Methylated Spermidine Derivatives: Convenient Syntheses and Antizyme-Related Effects” (Biomolecules, 2023).
Where two headings read alike, the source gives them in different places.

Molecular target: T1, mOAZ1 (Mus musculus, UniProt P54369)
T1 construct: gene Oaz1; full-length mouse antizyme 1 (+1 frameshift product); expressed in E. coli Rosetta (DE3) from pET-15b-2c-His-mAZ (XhoI site)
Assay: isothermal titration calorimetry
Assay type: binding
Excerpt: isothermal titration calorimetry on mOAZ1

T1 sequence (P54369 2-227): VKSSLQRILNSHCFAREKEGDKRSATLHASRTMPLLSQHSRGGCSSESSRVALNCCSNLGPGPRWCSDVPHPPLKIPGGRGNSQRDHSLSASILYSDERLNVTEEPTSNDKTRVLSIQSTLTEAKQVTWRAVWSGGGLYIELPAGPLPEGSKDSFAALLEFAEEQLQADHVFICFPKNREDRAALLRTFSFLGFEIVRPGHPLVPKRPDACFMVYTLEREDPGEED

NCCCNCCCCNCCCN [Spm]
Kd (read-out: Ka ^b, M^-1 (converted)): 0.37 µM
Kd (read-out: Kd ^c): 0.37 µM
